Values after ≈ are worked out from the molar mass of the structure shown.
What was measured:
lupus nephritis = assay: Lupus nephritis MRL/lpr mice: urinary protein, Scr, BUN, urinary Kim-1 and β-MG; type: in vivo; parameters: Scr / BUN / Kim-1 / β-MG: unit not given here; details: oral 30 mg/kg, 8 weeks
Method: RT Supermix for qPCR, Nanjing Vazyme Biotech Co., Ltd.; Urea Colorimetric Test Kit, Creatinine Colorimetric Test Kit, Nanjing Jiancheng Biotechnology Co., Ltd.; Urinary Kim-1 and β-MG Content ELISA Kits, Abcam. • Experimental animals: MRL/MpJ and MRL/lpr mice, female, 10 weeks old, purchased from GemPharmatech LLC. Production license number: SCXK(Su)2023-0009. […] They were acclimated for 7 days before use in experiments. […] Oral administration was performed continuously for 8 weeks. […] Aspirate the serum, aliquot it, and store at -70 °C for future use. After blood collection, euthanize mice by cervical dislocation. Open the abdominal cavity, remove kidneys, and dissect out perirenal fat and capsules. […] Store remaining tissues at -70 °C for future use. Serum Creatinine (Scr) and Blood Urea Nitrogen (BUN) Assay: […] Samples were added sequentially strictly according to the kit instructions, incubated at 37 °C, and measured for absorbance values using an enzyme-linked immunosorbent assay (ELISA) reader. The concentration levels of each indicator were calculated based on the standard curve.

[1] = test system: inflammatory factors (TNF, IL-6, IL-1); assay: Lupus nephritis MRL/lpr mice: Q-PCR of renal inflammatory factors; type: in vivo; details: kidney mRNA, oral 30 mg/kg, 8 weeks
Method: Production license number: SCXK(Su)2023-0009. […] They were acclimated for 7 days before use in experiments.
Oral administration was performed continuously for 8 weeks.
Allow blood to stand at room temperature for 2 hours, then centrifuge at 3000 rpm for 20 minutes. Aspirate the serum, aliquot it, and store at -70 °C for future use. After blood collection, euthanize mice by cervical dislocation. Open the abdominal cavity, remove kidneys, and dissect out perirenal fat and capsules. […] Store remaining tissues at -70 °C for future use.
Additional primer information is as follows: Table 19. Q-PCR Primer Information

[2] = test system: fibrosis-related factors (Acta2, Col1a1, Tgfb1); assay: CCl4 acute liver injury model in mice: Q-PCR of fibrosis-related factors in liver; type: in vivo, C57BL/6 mice; details: liver mRNA, 200 mg/kg
Method: They were acclimated for 7 days before use in experiments. • Experimental Methods: Establishment of Acute Liver Injury Model in Mice and Group-Specific Drug Administration • Mice were randomly assigned to groups. One group was arbitrarily designated as the normal group, while the remaining groups served as model group, Compound 1 group, Hydrochloride 20 group, Fumarate 21 group, and Silibinin group, with 6 mice per group. Except for the normal group receiving 10 mL olive oil/kg via injection, all other mice received 0.5 mL CCl4 + 9.5 mL olive oil/kg body weight via intraperitoneal injection, maintaining a CCl4 to olive oil ratio of 1:19. Starting from day 1 of modeling, Compound 1, Hydrochloride 20, and Fumarate 21 were administered orally for 3 consecutive days. […] The blood was allowed to stand at room temperature for 2 hours, then centrifuged at 3000 rpm for 20 minutes. Serum was aspirated, aliquoted, and stored at -70 °C for future use. After blood collection, euthanize mice by cervical dislocation. Perform laparotomy to remove the liver. Rinse twice with pre-chilled PBS. Excise the left hepatic lobe tissue. […] Store remaining tissue at -70 °C for future use. • Serum AST and ALT Assay: Use 10 µL of each sample for testing. Determine mouse serum AST and ALT levels according to the operating manual. Measure absorbance at 510 nm using an enzyme-linked immunosorbent assay (ELISA) reader. Calculate sample concentration (U/L) based on the standard curve.
Q-PCR Analysis: Tissue total RNA extraction, cDNA synthesis, and PCR amplification methods are identical to Example 4. Additional primer information is as follows:
Data Statistics: All data are expressed as means ± standard error of the mean (S.E.M.). Differences were analyzed for significance using analysis of variance (ANOVA). For groups showing significant differences in ANOVA, one-way ANOVA followed by Dunnett's test was performed to compare intergroup differences.

[3] = test system: CCl4-induced liver injury; assay: CCl4 acute liver injury model in mice: serum ALT and AST; type: in vivo, C57BL/6 mice; details: 200 mg/kg (method: U/L)
Source text: The drug of the present invention, prepared according to Example 2; Silybin, Shanghai Yuanye Biotechnology Co., Ltd.; Olive oil, Beijing […] Olive Oil Development Center; Analytical grade carbon tetrachloride (CCl4), Shantou Xilong Chemical Factory; Sodium carboxymethyl cellulose (CMC-Na), Guangdong Shantou Xilong Chemical Factory; RNA Isolater Total RNA Extraction Reagent, […] RT Supermix for qPCR, Nanjing Vazyme Biotech Co., Ltd.; AceQ qPCR SYBR Green Master Mix, Shanghai Yeasen Biotechnology Co., Ltd.; Aspartate Transaminase (AST/GOT) Colorimetric Test Kit, Alanine Transaminase (ALT/GPT) Colorimetric Test Kit, Wuhan Elabscience Biotechnology Co., Ltd. • Experimental animals: […] SCXK(Su)2019-002. […] They were acclimated for 7 days before use in experiments. • Experimental Methods: Establishment of Acute Liver Injury Model in Mice and Group-Specific Drug Administration • Mice were randomly assigned to groups. […] One hour after the final drug administration, blood was collected from the retinal venous plexus. […] Serum was aspirated, aliquoted, and stored at -70 °C for future use. After blood collection, euthanize mice by cervical dislocation. Perform laparotomy to remove the liver. Rinse twice with pre-chilled PBS. Excise the left hepatic lobe tissue. […] Store remaining tissue at -70 °C for future use. • Serum AST and ALT Assay: Use 10 μL of each sample for testing. Determine mouse serum AST and ALT levels according to the operating manual. Measure absorbance at 510 nm using an enzyme-linked immunosorbent assay (ELISA) reader. Calculate sample concentration (U/L) based on the standard curve. Data Statistics: All data are expressed as means ± standard error of the mean (S.E.M.). Differences were analyzed for significance using analysis of variance (ANOVA). For groups showing significant differences in ANOVA, one-way ANOVA followed by Dunnett's test was performed to compare intergroup differences.

CCR2 mRNA = CCR2 mRNA level in MDSCs (PCR); type: cell-based, mice; details: CCR2 mRNA levels in MDSCs, 2 h
Method: Mice were euthanized by cervical dislocation and immersed in 75% ethanol solution for 5 min. Under sterile conditions, the tibia was removed, both ends of the bone were cut, and bone marrow was repeatedly flushed into a 15 mL centrifuge tube using a 1 mL syringe filled with culture medium. Centrifuge at 1600 rpm for 5 min to collect bone marrow cells. Wash twice with 1×PBS, then resuspend in RPMI 1640 complete medium containing GM-CSF (10 ng/mL) + IL-4 (10 ng/mL) and transfer to a cell culture dish to stimulate differentiation of bone marrow cells into MDSCs. Count cells and adjust density to 1 × 10^6 cells/mL in complete medium. Seed cells uniformly into 6-well plates at 2 mL per well. […] After incubation, collect cells into centrifuge tubes, centrifuge at 1600 rpm for 5 min, wash once with 1×PBS, and add 500 µL RNA extraction reagent to each tube. After centrifugation to obtain the pellet, add 20 µL DEPC-treated water to each tube to dissolve the pellet. Determine RNA concentration and reverse transcribe to cDNA. Add the cDNA, primers, and reverse transcriptase to a 96-well plate. Centrifuge at 4000 rpm for 5 min, then place in a PCR instrument for detection.

MDSCs = assay: Inhibition of MDSC chemotaxis (Transwell, Hepa1-6 tumor-conditioned medium); type: cell-based, mice; details: 12 h treatment, 24 h Transwell
Method: Hepa1-6 mouse hepatocellular carcinoma cells were uniformly seeded into 6-well plates. After cells reached confluence, supernatant was aspirated, and 1-1.5 mL fresh medium was added to each well. Following 24 h culture, supernatant was collected, centrifuged at 1600 rpm for 5 min, aspirated, and filtered through a 0.22 µm membrane to obtain tumor-conditioned medium for subsequent use. Euthanize mice by cervical dislocation and immerse in 75% ethanol solution for 5 min. Under sterile conditions, remove the tibia, cut both ends of the bone, and aspirate the bone marrow into a 1 mL syringe. Repeat flushing into a 15 mL centrifuge tube. Centrifuge at 1600 rpm for 5 min to collect bone marrow cells. Wash twice with 1×PBS. Resuspend cells in complete RPMI 1640 medium containing cytokines GM-CSF (10 ng/mL) and IL-4 (10 ng/mL) to stimulate differentiation into MDSCs. Count cells, adjust density to 1×10^6 cells/mL, and uniformly seed into 24-well plates at 300 µL per well. […] Centrifuge at 1600 rpm for 5 min, remove supernatant, resuspend cells in 300 µL fresh medium, and place into Transwell chambers. Add 600 µL normal medium (control group) or tumor-conditioned medium (model group) to the lower chamber. Co-culture for 24 h.

physchem = details: water, 37 °C, thermodynamic from solid
4T1 cells = type: in vivo, BALB/c mice; details: 4T1, oral 40 µmol/kg/day, 3 weeks
Method: 4T1 cells were cultured and expanded in vitro. […] A 100 µL aliquot of this suspension was injected subcutaneously into the left forelimb axilla of female BALB/c mice. […] Daily oral administration was performed for 3 weeks. During the treatment period, mouse body weight and tumor diameter were measured daily. At the end of the experiment, mice were euthanized by cervical dislocation, and tumors were removed for weighing. Tumor volume (TV) was calculated using the formula: TV = 1/2 × a × b^2, where a represents the longest diameter of the tumor and b represents the shortest diameter.

[4] = Conversion rate of salt-form prodrugs to parent compound in HEPES buffer solution; type: physicochemical; details: conversion to Compound 83, HEPES buffer pH 7.4, 37 °C
Outline: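 Salt-form prodrug dissolved in water was mixed 1:1 with HEPES buffer pH 7.4 (or mouse serum) and incubated at 37°C. Aliquots were quenched with methanol and centrifuged, and supernatants taken at 1, 2, 4, 8 and 12 h were analysed by HPLC. Conversion was followed by peak areas.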

[5] = Conversion rate of salt-form prodrugs to parent compound in mouse plasma; type: in vitro ADME; details: conversion to Compound 83, mouse plasma, 37 °C

SMILES: CC(C)(O)c1coc(S(=O)(=O)NC(=O)Nc2c3c(cc4c2CCC4)CCC3)c1 [MCC950, reference compound]
- 24-hour urine protein level (lupus nephritis): 0.89±0.11
- BUN (lupus nephritis; serum): 12.08±2.01
- Scr (lupus nephritis; serum): 22.18±3.41
- Kim-1 (lupus nephritis; urine): 0.53±0.06
- β-MG (lupus nephritis; urine): 15.41±0.39
- Il1 [1]: 5.43±0.71
- Il6 [1]: 9.52±0.84
- Tnf [1]: 4.33±0.52

SMILES: COc1cc(C2Oc3cc([C@H]4Oc5cc(O)cc(O)c5C(=O)[C@@H]4O)ccc3OC2CO)ccc1O (stereo partly shown) [Silybin, reference compound]
- Acta2 [2]: 2.91±0.48
- Col1a1 [2]: 1.84±0.17
- Tgfb1 [2]: 1.11±0.08
- ALT [3]: 121.58±15.45
- AST [3]: 301.45±38.44

SMILES: C=C1C(=O)O[C@H]2[C@H]1CCC(C)=C1CC[C@@](C)(OC(=O)NCCN3CCOCC3)[C@@H]12 [compound 78]
- CCR2 mRNA suppression rate in MDSCs (%) (CCR2 mRNA; 1 µM): 23.0%
- CCR2 mRNA suppression rate in MDSCs (%) (CCR2 mRNA; 10 µM): 52.7%
- Suppression Rate (%) (MDSCs; 1 µM): 29.0%
- Suppression Rate (%) (MDSCs; 10 µM): 67.1%

SMILES: C=C1C(=O)O[C@H]2[C@H]1CCC(C)=C1CC[C@@](C)(OC(=O)N3CCCCC3)[C@@H]12 [compound 83]
- CCR2 mRNA suppression rate in MDSCs (%) (CCR2 mRNA; 1 µM): 17.0%
- CCR2 mRNA suppression rate in MDSCs (%) (CCR2 mRNA; 10 µM): 70.0%
- solubility (physchem): 152 µg/mL (≈ 423 µM)
- Suppression Rate (%) (MDSCs; 1 µM): 29.4%
- Suppression Rate (%) (MDSCs; 10 µM): 75.9%

SMILES: C=C1C(=O)O[C@H]2[C@H]1CCC(C)=C1CC[C@@](C)(OC(=O)NCCN3CCOCC3)[C@@H]12 [compound 99]
- antitumor effects (4T1 cells): no significant antitumor effects

SMILES: CC1=C2CC[C@@](C)(OC(=O)N3CCCCC3)[C@@H]2[C@H]2OC(=O)[C@@H](CN(C)C)[C@@H]2CC1 [compound 102]
- antitumor effects (4T1 cells): no significant antitumor effects
- Release rate ([4]; 1 h): 6.8%
- Release rate ([4]; 2 h): 14.6%
- Release rate ([4]; 4 h): 24.8%
- Release rate ([4]; 8 h): 43.0%
- Release rate ([4]; 12 h): 51.8%
- Release rate ([5]; 1 h): 6.6%
- Release rate ([5]; 2 h): 14.0%
- Release rate ([5]; 4 h): 26.0%
- Release rate ([5]; 8 h): 42.4%
- Release rate ([5]; 12 h): 47.8%
